# Results from patent US8735387B2, “Oxazolopyrimidines as Edg-1 receptor agonists” (Sanofi, priority 2008, dated 2014).
# Target: T1, human Edg-1 receptor (Homo sapiens, UniProt P21453)
# T1 construct: expressed in transfected cells; membrane preparation
# Experiment: GTP-γ-S assay using human Edg-1 receptors (scintillation proximity assay, membrane preparation from CHO Flp-In cell line)
# Type: biochemical
# Details: example compound at 10 μM; relative to 10 μM S1P; GTP-γ-S SPA, human Edg-1 membranes
# From the text: Determination of the Pharmacological Activity A) GTP-γ-S Assay Using Human Edg-1 Receptors
# In order to determine the Edg-1 receptor activation by the compounds of the invention, a GTP-γ-S (guanosine 5′-[γ-thio]triphosphate) assay for G-protein coupled receptor binding based on the scintillation proximity assay principle was used, employing a cell membrane preparation from a CHO Flp-In cell line which constitutively overexpresses the human Edg-1 receptor.
# The Flp-In™ expression system (Invitrogen, cat. no. K6010-01) allows the generation of stable mammalian cell lines into which the gene of interest has been integrated through homologous recombination at a specific genomic location called Flp Recombination Target (FRT) site by means of a Flp recombinase encoded by the pOG44 expression plasmid. The integration of the pcDNA5/FRT expression construct into the Flp-In host cell line genome results in the transcription of the gene of interest. The stably transfected cells become hygromycin-resistant.
# One day prior to transfection, 200 000 Flp-In-CHO cells were seeded in Ham F-12 medium (Invitrogen, cat. no. 31765) supplemented with 10% fetal calf serum (FCS; Perbio Science, cat. no. SH30068.03) in a 6-well plate and incubated at 37° C./5% CO2 overnight. Using the FuGENE® 6 transfection reagent (Roche, cat. no. 11988387001), cells were cotransfected with the Flp recombinase expression plasmid pOG44 and a modified plasmid additionally containing the edg-1 gene (accession no. NM_001400) termed as pcDNA5-FRT-TO_nFLAG_DEST-EDG-1 with a 9:1 ratio. To obtain the modified pcDNA5-FRT-TO_nFLAG_DEST plasmid, the Invitrogen plasmid pcDNA5/FRT/TO (Invitrogen, cat. no. V6520-20) was adapted to the Gateway® (Invitrogen) cloning system by inserting a Gateway cassette containing attR recombination sites flanking a ccdB gene and a chloramphenicol-resistance gene (Gateway conversion system, Invitrogen, cat. no. 11828-029). In addition a FLAG tag epitope was added before the 5′ att recombination site to allow recombinant expression of N-terminally FLAG-tagged proteins.
# For the transfection of one well, 1.08 μg of pOG44 and 0.12 μg of pcDNA5-FRT-TO_nFLAG_DEST-EDG-1 were mixed to 100 μl of serum-free Ham F-12 medium containing 6 μl of FuGENE® 6 transfection reagent. After 20 min of incubation, the transfection reagent/DNA complex was distributed dropwise on the cells. The cells were incubated for 24 h at 37° C. Then the cells from 3 wells each were transferred to a T75 flask (Greiner Cellstar®, cat. no. 658175) containing Ham F-12 medium supplemented with 10% of FCS but without antibiotic and were incubated another 24 h. 48 h after transfection, the medium was replaced by selection medium (Ham F-12 supplemented with 10% of FCS and 300 μg/ml of hygromycin B (Invitrogen, cat. no. 10687-010)). The medium was exchanged every 2 to 3 days until a resistant population of cells had grown. […] After 2 weeks of selection, the cells were transferred into T175 flasks (Greiner Cellstar®, cat. no. 660175) and cultivated for batch production. Cells were harvested from the culture flasks by short treatment (2 to 5 min) with Accutase (PAA, cat. no. L11-007), resuspended in selection medium (see above) and centrifuged at 200×g for 5 min. Cells were resuspended in a mixture of 90% of FCS and 10% of dimethylsulfoxide and stored frozen in liquid nitrogen.
# A membrane preparation was obtained by standard methods from the afore-described CHO Flp-In cell line constitutively overexpressing the human Edg-1 receptor. Briefly, the cryopreserved cells were taken in culture and grown until confluency in T175 cell culture flasks (Becton Dickinson, cat. no. 35 5001). […]
# T1 sequence (P21453 whole entry): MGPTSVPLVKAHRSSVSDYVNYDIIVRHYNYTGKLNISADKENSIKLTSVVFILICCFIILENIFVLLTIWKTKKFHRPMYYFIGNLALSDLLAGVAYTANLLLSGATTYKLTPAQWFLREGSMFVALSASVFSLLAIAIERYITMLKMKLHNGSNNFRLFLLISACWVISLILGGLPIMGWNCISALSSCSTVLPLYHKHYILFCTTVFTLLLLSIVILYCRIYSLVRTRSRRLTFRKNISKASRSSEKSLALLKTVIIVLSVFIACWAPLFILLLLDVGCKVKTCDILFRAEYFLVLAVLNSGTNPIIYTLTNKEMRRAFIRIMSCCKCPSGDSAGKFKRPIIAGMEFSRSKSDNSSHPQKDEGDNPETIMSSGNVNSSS
row,Structure (SMILES),% Activation (Edg-1 receptor activation in percent of the activation by 10 μM S1P) [%]
1,CCCOc1nc(CN2CCC(F)(F)CC2)nc2oc(-c3ccc(Cl)c(F)c3)nc12 [Example 90],115
2,CCCOc1nc(CN2CCCOCC2)nc2oc(-c3ccc(Cl)c(F)c3)nc12 [Example 91],96
3,CCCOc1nc(CN2CCCOCC2)nc2oc(-c3ccc(OC)c(F)c3)nc12 [Example 92],106
4,CCCOc1nc(CN2CCC(F)(F)CC2)nc2oc(-c3ccc(OC)c(F)c3)nc12 [Example 93],103
5,CCCOc1nc(CN2CCC(C(F)(F)F)CC2)nc2oc(-c3cccc(F)c3)nc12 [Example 94],82
6,CCCOc1nc(CN2CCCC2(F)F)nc2oc(-c3cccc(F)c3)nc12 [Example 95],105
7,CCCOc1nc(CN2CCC(F)(F)CC2)nc2oc(-c3ccco3)nc12 [Example 96],121
8,CCCOc1nc(CN2CCCOCC2)nc2oc(-c3ccco3)nc12 [Example 97],100
9,CCCOc1nc(CN2CCC(F)(F)CC2)nc2oc(-c3ccc(Br)o3)nc12 [Example 98],120
10,CCCOc1nc(CN2CCCOCC2)nc2oc(-c3ccc(Br)o3)nc12 [Example 99],117
11,CCCOc1nc(Cc2ccc(Cl)cc2)nc2oc(-c3ccc(C)cc3)nc12 [Example 100],88
12,CCCOc1nc(Cc2ccc(Cl)cc2)nc2oc(-c3cccc(C)c3)nc12 [Example 101],91
13,CCCOc1nc(Cc2ccc(Cl)cc2)nc2oc(-c3ccco3)nc12 [Example 102],65
14,CCCOc1nc(Cc2ccc(Cl)cc2)nc2oc(-c3cccs3)nc12 [Example 103],85
15,Fc1cccc(-c2nc3c(OCC4CC4)nc(Cc4ccc(Cl)cc4)nc3o2)c1 [Example 104],87
16,Cc1cccc(-c2nc3c(OCCC(C)C)nc(Cc4ccc(Cl)cc4)nc3o2)c1 [Example 106],22
17,Cc1cccc(-c2nc3c(OC4CCCC4)nc(Cc4ccc(Cl)cc4)nc3o2)c1 [Example 107],73
18,CCCCOc1nc(Cc2ccc(Cl)cc2)nc2oc(-c3cccc(C)c3)nc12 [Example 108],31
19,C#CCOc1nc(Cc2ccc(Cl)cc2)nc2oc(-c3cccc(C)c3)nc12 [Example 109],61
20,Clc1ccc(Cc2nc(OC3CCCC3)c3nc(-c4ccco4)oc3n2)cc1 [Example 110],61
21,CCCCOc1nc(Cc2ccc(Cl)cc2)nc2oc(-c3ccco3)nc12 [Example 111],57
22,Fc1cccc(-c2nc3c(OC4CCCC4)nc(Cc4ccc(Cl)cc4)nc3o2)c1 [Example 112],66
23,Cc1ccc(-c2nc3c(OC4CCCC4)nc(Cc4ccc(Cl)cc4)nc3o2)cc1 [Example 113],41
24,Clc1ccc(Cc2nc(OC3CCCC3)c3nc(-c4cccs4)oc3n2)cc1 [Example 114],83

row,Structure (SMILES),% Activation (Edg-1 receptor activation in percent of the activation by 10 μM S1P) [%]
1,CCCCOc1nc(Cc2ccc(Cl)cc2)nc2oc(-c3cccs3)nc12 [Example 115],33
2,C=CCOc1nc(Cc2ccc(Cl)cc2)nc2oc(-c3cccc(C)c3)nc12 [Example 116],136
3,CCOc1nc(Cc2ccc(Cl)cc2)nc2oc(-c3cccc(C)c3)nc12 [Example 117],101
4,Cc1cccc(-c2nc3c(OCCF)nc(Cc4ccc(Cl)cc4)nc3o2)c1 [Example 118],103
5,C=C(C)COc1nc(Cc2ccc(Cl)cc2)nc2oc(-c3cccc(C)c3)nc12 [Example 119],80
6,Cc1cccc(-c2nc3c(OCCCF)nc(Cc4ccc(Cl)cc4)nc3o2)c1 [Example 120],107
7,C=CCCOc1nc(Cc2ccc(Cl)cc2)nc2oc(-c3cccc(C)c3)nc12 [Example 121],99
8,CCCOc1nc(Cc2ccc(Cl)cc2)nc2oc(-c3cccnc3)nc12 [Example 122],103
9,C#CCOc1nc(Cc2ccc(Cl)cc2)nc2oc(-c3cccnc3)nc12 [Example 123],47
10,C=C(C)COc1nc(Cc2ccc(Cl)cc2)nc2oc(-c3cccnc3)nc12 [Example 124],94
11,FCCCOc1nc(Cc2ccc(Cl)cc2)nc2oc(-c3cccnc3)nc12 [Example 125],112
12,FCCCOc1nc(Cc2ccc(Cl)cc2)nc2oc(-c3cccnc3)nc12 [Example 126],105
13,C=CCOc1nc(Cc2ccc(Cl)cc2)nc2oc(-c3cccnc3)nc12 [Example 127],73
14,CCOc1nc(Cc2ccc(Cl)cc2)nc2oc(-c3cccnc3)nc12 [Example 128],110
15,CCCOc1nc(Cc2ccc(Cl)cc2)nc2oc(-c3cccc(OC)c3)nc12 [Example 129],108
16,CCCOc1nc(Cc2ccc(Cl)cc2)nc2oc(-c3cccc(Cl)c3)nc12 [Example 130],78
17,CCCOc1nc(Cc2ccc(Cl)cc2)nc2oc(-c3cc(F)ccc3F)nc12 [Example 131],116
18,CCCOc1nc(Cc2ccc(Cl)cc2)nc2oc(-c3ccc(F)c(F)c3)nc12 [Example 132],71
19,CCCOc1nc(Cn2c(=O)n(C)c3ccccc32)nc2oc(-c3cccc(F)c3)nc12 [Example 133],127
20,CCCOc1nc(CN2CCC(=O)C(C(=O)OC)C2)nc2oc(-c3cccc(F)c3)nc12 (stereo not shown) [Example 134],78
21,CCCOc1nc(Cc2ccc(Cl)cc2)nc2oc(-c3cc(N)ccc3F)nc12 [Example 135],117
22,CCCOc1nc(Cc2ccc(C)cc2)nc2oc(-c3cccc(F)c3)nc12 [Example 136],73
23,CCCOc1nc(Cc2ccc(Cl)cc2)nc2oc(-c3cccc(N(C)C)c3)nc12 [Example 137],55
24,CCCOc1nc(Cc2ccc(Cl)cc2)nc2oc(-c3cc(C(F)(F)F)cc(C(F)(F)F)c3)nc12 [Example 138],52

# Same assay, conditions: example compound at 10 μM; relative to 10 μM S1P; GTP-γ-S SPA, human Edg-1 membranes; read-out: % Activation (Edg-1 receptor activation in percent of the activation by 10 μM S1P)
row,Structure (SMILES),activation at 10 µM [%]
1,"Cc1cccc(-c2nc3c(OCC4CC4)nc(Cc4ccc(Cl)cc4)nc3o2)c1 [Example 105, 5-(4-chloro-benzyl)-7-cyclopropylmethoxy-2-(3-methyl-phenyl)-oxazolo[5,4-d]pyrimidine]",81
